Data taken from US8183262B2, “Pyridine derivatives as mGluR2 antagonists” (Hoffmann-La Roche Inc., priority 2007, dated 2012).

| Compound | melting point |
| --- | --- |
| Cc1cc(-c2ccc(C(F)(F)F)cc2)nc(-c2ccnc(-c3ccc(N)nc3)c2)n1 [Example 113, 4-[4-Methyl-6-(4-trifluoromethyl-phenyl)-pyrimidin-2-yl]-[2,3′]bipyridinyl-6′-ylamine] | 232 °C |
| NS(=O)(=O)c1ccc(-c2cn(-c3nc(-c4ccc(Cl)cc4)cc(C(F)(F)F)n3)cn2)cc1 [Example 175, 4-{1-[4-(4-Chloro-phenyl)-6-trifluoromethyl-pyrimidin-2-yl]-1H-imidazol-4-yl}-benzenesulfonamide] | 324 °C |
| Cc1cc(-c2ccc(C(F)(F)F)cc2)cc(-c2cccc(-c3ccncc3)c2)n1 [Example 79, 2-Methyl-6-(3-pyridin-4-yl-phenyl)-4-(4-trifluoromethyl-phenyl)-pyridine] | 143 to 147 °C |
| FC(F)(F)c1ccc(-c2cc(C(F)(F)F)nc(-n3cccc3)n2)cc1 [Example 4, 2-Pyrrol-1-yl-4-trifluoromethyl-6-(4-trifluoromethyl-phenyl)-pyrimidine] | 120.5 °C |
| CCc1cc(-c2ccc(C(F)(F)F)cc2)cc(-c2cccc(-c3ccc(N)nc3)c2)n1 [Example 264, 5-{3-[6-Ethyl-4-(4-trifluoromethyl-phenyl)-pyridin-2-yl]-phenyl}-pyridin-2-ylamine] | 74 °C |
| Nc1ccc(-c2cc(-c3nc(-c4cccc(C(F)(F)F)c4)cc(C(F)(F)F)n3)ccn2)cn1 [Example 141, 4-[4-Trifluoromethyl-6-(3-trifluoromethyl-phenyl)-pyrimidin-2-yl]-[2,3′]bipyridinyl-6′-ylamine] | 196 °C |
| Cc1c(-c2ccc(N)nc2)ncn1-c1nc(-c2ccc(C(F)(F)F)cc2)cc(C(F)(F)F)n1 [Example 154, 5-{5-Methyl-1-[4-trifluoromethyl-6-(4-trifluoromethyl-phenyl)-pyrimidin-2-yl]-1H-imidazol-4-yl}-pyridin-2-ylamine] | 252 °C |
| Cc1cc(-c2ccc(C(F)(F)F)cc2)cc(-c2ccnc(-c3ccc(N)nc3)n2)n1 [Example 239, 5-{4-[6-Methyl-4-(4-trifluoromethyl-phenyl)-pyridin-2-yl]-pyrimidin-2-yl}-pyridin-2-ylamine] | 191 °C |
| Cc1cc(-c2ccc(C(F)(F)F)cc2)nc(-c2ccnc(-c3ccc(S(N)(=O)=O)s3)c2)n1 [Example 197, 5-{4-[4-Methyl-6-(4-trifluoromethyl-phenyl)-pyrimidin-2-yl]-pyridin-2-yl}-thiophene-2-sulfonic acid amide] | 263.5 °C |
| Cc1nc(-c2cn(-c3cc(-c4ccc(C(F)(F)F)cc4)cc(C(F)(F)F)n3)cn2)sc1S(N)(=O)=O [Example 312, 4-Methyl-2-{1-[6-trifluoromethyl-4-(4-trifluoromethyl-phenyl)-pyridin-2-yl]-1H-imidazol-4-yl}-thiazole-5-sulfonic acid amide] | 170 °C (dec.) |
| Cc1cc(-c2ccc(Cl)c(C)c2)nc(-c2cccc(-c3cccc(S(N)(=O)=O)c3)c2)n1 [Example 379, 3′-[4-(4-Chloro-3-methyl-phenyl)-6-methyl-pyrimidin-2-yl]-biphenyl-3-sulfonic acid amide] | 201 °C |
| Cc1cc(-c2ccc(C(F)(F)F)cc2)cc(-c2ccnc(-c3cccc(S(N)(=O)=O)c3)c2)n1 [Example 289, 3-[6-Methyl-4-(4-trifluoromethyl-phenyl)-[2,4′]bipyridinyl-2′-yl]-benzenesulfonamide] | > 250 °C |
| NS(=O)(=O)c1cccc(-c2cc(-c3nc(-c4ccc(Cl)c(Cl)c4)cc(C(F)(F)F)n3)ccn2)c1 [Example 203, 3-{4-[4-(3,4-Dichloro-phenyl)-6-trifluoromethyl-pyrimidin-2-yl]-pyridin-2-yl}-benzenesulfonamide] | 247 °C |
| NS(=O)(=O)c1cccc(-c2cc(-c3nc(-c4ccc(F)cc4)cc(C(F)(F)F)n3)ccn2)c1 [Example 398, 3-{4-[4-(4-Fluoro-phenyl)-6-trifluoromethyl-pyrimidin-2-yl]-pyridin-2-yl}-benzenesulfonamide] | 239.5 °C |
| CCc1cc(-c2ccc(C(F)(F)F)cc2)cc(-c2cccc(-c3cnc(N)nc3)c2)n1 [Example 260, 5-{3-[6-Ethyl-4-(4-trifluoromethyl-phenyl)-pyridin-2-yl]-phenyl}-pyrimidin-2-ylamine] | 209 °C |
| Cc1cc(-c2ccc(C(F)(F)F)c(C)c2)nc(-c2cccc(-c3ccc(S(N)(=O)=O)s3)c2)n1 [Example 417, 5-{3-[4-Methyl-6-(3-methyl-4-trifluoromethyl-phenyl)-pyrimidin-2-yl]-phenyl}-thiophene-2-sulfonic acid amide] | 242 °C |
| NS(=O)(=O)c1cccc(-c2cc(-c3nc(-c4ccc(Cl)cc4)cc(C(F)(F)F)n3)ccn2)c1 [Example 179, 3-{4-[4-(4-Chloro-phenyl)-6-trifluoromethyl-pyrimidin-2-yl]-pyridin-2-yl}-benzenesulfonamide] | 182 °C |
| Cc1cc(-c2ccc(C(F)(F)F)cc2)cc(-c2nc(-c3cnc(N)nc3)cs2)n1 [Example 231, 5-{2-[6-Methyl-4-(4-trifluoromethyl-phenyl)-pyridin-2-yl]-thiazol-4-yl}-pyrimidin-2-ylamine] | > 250 °C |
| O=S(=O)(NC1CC1)c1cccc(-c2cc(-c3nc(-c4ccc(C(F)(F)F)cc4)cc(C(F)(F)F)n3)ccn2)c1 [Example 409, N-Cyclopropyl-3-{4-[4-trifluoromethyl-6-(4-trifluoromethyl-phenyl)-pyrimidin-2-yl]-pyridin-2-yl}-benzenesulfonamide] | 195.5 °C |
| Cc1cc(-c2cc(C(F)(F)F)nc(-c3cccc(-c4ccc(N)nc4)c3)n2)ccc1C(F)(F)F [Example 119, 5-{3-[4-(3-Methyl-4-trifluoromethyl-phenyl)-6-trifluoromethyl-pyrimidin-2-yl]-phenyl}-pyridin-2-ylamine] | 207 °C |

The next lines start with the values.

| melting point | Compound |
| --- | --- |
| 205 °C | Cc1cc(-c2cc(C(F)(F)F)nc(-c3cccc(-c4cccc(S(N)(=O)=O)c4)c3)n2)ccc1C(F)(F)F [Example 206, 3′-[4-(3-Methyl-4-trifluoromethyl-phenyl)-6-trifluoromethyl-pyrimidin-2-yl]-biphenyl-3-sulfonic acid amide] |
| 282.5 °C | Nc1ccc(-c2cn(-c3nc(-c4ccc(Cl)c(Cl)c4)cc(C(F)(F)F)n3)cn2)cn1 [Example 102, 5-{1-[4-(3,4-Dichloro-phenyl)-6-trifluoromethyl-pyrimidin-2-yl]-1H-imidazol-4-yl}-pyridin-2-ylamine] |
| 226 °C | NS(=O)(=O)c1ccc(-c2cccc(-c3nc(-c4ccc(Cl)cc4)cc(C(F)(F)F)n3)c2)s1 [Example 174, 5-{3-[4-(4-Chloro-phenyl)-6-trifluoromethyl-pyrimidin-2-yl]-phenyl}-thiophene-2-sulfonic acid amide] |
| 217.5 °C | NS(=O)(=O)c1cccc(-c2noc(-c3nc(-c4ccc(C(F)(F)F)cc4)cc(C(F)F)n3)n2)c1 [Example 40, 3-{5-[4-Difluoromethyl-6-(4-trifluoromethyl-phenyl)-pyrimidin-2-yl]-[1,2,4]oxadiazol-3-yl}-benzenesulfonamide] |
| 225 °C | Cc1cc(-c2ccc(C(F)(F)F)cc2)cc(-c2ccnc(-c3ccc(S(=O)(=O)NC(C)(C)C)s3)c2)n1 [Example 304, 5-[6-Methyl-4-(4-trifluoromethyl-phenyl)-[2,4′]bipyridinyl-2′-yl]-thiophene-2-sulfonic acid tert-butylamide] |
| 240 °C | Cc1cc(-c2ccc(Cl)c(C)c2)nc(-c2cccc(-c3ccc(S(N)(=O)=O)s3)c2)n1 [Example 380, 5-{3-[4-(4-Chloro-3-methyl-phenyl)-6-methyl-pyrimidin-2-yl]-phenyl}-thiophene-2-sulfonic acid amide] |
| 297 °C | Cc1cc(-c2cc(C(F)(F)F)nc(-n3cnc(-c4cnc(N)nc4)c3)n2)ccc1C(F)(F)F [Example 125, 5-{1-[4-(3-Methyl-4-trifluoromethyl-phenyl)-6-trifluoromethyl-pyrimidin-2-yl]-1H-imidazol-4-yl}-pyrimidin-2-ylamine] |
| 280 °C | Cc1cc(-c2cc(C(F)(F)F)nc(-c3ccnc(-c4ccc(S(N)(=O)=O)s4)c3)n2)ccc1Cl [Example 414, 5-{4-[4-(4-Chloro-3-methyl-phenyl)-6-trifluoromethyl-pyrimidin-2-yl]-pyridin-2-yl}-thiophene-2-sulfonic acid amide] |
| 196 °C | Cc1cc(-c2ccc(C(F)(F)F)cc2)cc(-c2nc(-c3cccc(S(=O)(=O)NC(C)(C)C)c3)cs2)n1 [Example 263, N-tert-Butyl-3-{2-[6-methyl-4-(4-trifluoromethyl-phenyl)-pyridin-2-yl]-thiazol-4-yl}-benzenesulfonamide] |
| 285 °C | Cc1nc(-c2ccc(N)nc2)cn1-c1nc(-c2ccc(C(F)(F)F)cc2)cc(C(F)(F)F)n1 [Example 142, 5-{2-Methyl-1-[4-trifluoromethyl-6-(4-trifluoromethyl-phenyl)-pyrimidin-2-yl]-1H-imidazol-4-yl}-pyridin-2-ylamine] |
| 227.5 °C | NS(=O)(=O)c1cccc(-c2cccc(-c3nc(-c4ccc(C(F)(F)F)c(F)c4)cc(C(F)(F)F)n3)c2)c1 [Example 460, 3′-[4-(3-Fluoro-4-trifluoromethyl-phenyl)-6-trifluoromethyl-pyrimidin-2-yl]-biphenyl-3-sulfonic acid amide] |
| 247.5 °C | Cc1cc(-c2ccc(C(F)(F)F)c(C)c2)nc(-n2cnc(-c3ccc(N)nc3)c2)n1 [Example 122, 5-{1-[4-Methyl-6-(3-methyl-4-trifluoromethyl-phenyl)-pyrimidin-2-yl]-1H-imidazol-4-yl}-pyridin-2-ylamine] |
| 168.5 °C | Cc1cc(-c2ccc(Cl)cc2)nc(-c2cccc(-c3ccc(N)nc3)c2)n1 [Example 109, 5-{3-[4-(4-Chloro-phenyl)-6-methyl-pyrimidin-2-yl]-phenyl}-pyridin-2-ylamine] |
| 205 °C | Cc1cc(-c2ccc(Cl)c(Cl)c2)nc(-c2ccnc(-c3ccc(N)nc3)c2)n1 [Example 146, 4-[4-(3,4-Dichloro-phenyl)-6-methyl-pyrimidin-2-yl]-[2,3′]bipyridinyl-6′-ylamine] |
